Test system: HCV replicon
Test: HCV replicon replication assay (NPT ELISA) in Huh-7 replicon-containing cells
Format: cell-based
Conditions: Hepatitis C virus, 72 h; HCV replicon in Huh-7 cells, three days incubation; read-out: EC50
Summary of the method: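 Huh-7 cells carrying a bicistronic HCV replicon (HCV-IRES-neo, EMCV-IRES-driven NS3–NS5B, 3′-NTR) were seeded at 6000-7500 cells/well, grown 24 h to 60-70% confluence, then treated with graded compound concentrations. Replication was read as NPT level by capture ELISA (rabbit anti-NPTII, Eu-N1 secondary); interferon alpha served as positive control.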

| SMILES | EC50 |
| --- | --- |
| C=C[C@@H]1C[C@]1(NC(=O)[C@@H]1C[C@@H](Oc2cc(-c3ccccc3)nc3cc(OC)ccc23)CN1C(=O)[C@@H](CC(=O)N1CCCCC1)C(C)(C)C)C(=O)NS(=O)(=O)C1CCCC1 [Compound 105, (2S,4R)-1-((S)-2-tert-butyl-4-oxo-4-(piperidin-1-yl)butanoyl)-N-((1R,2S)-1-(cyclopentyl-sulfonylcarbamoyl)-2-vinylcyclopropyl)-4-(7-methoxy-2-phenylquinolin-4-yloxy)pyrrolidine-2-carboxamide] | < 1000 nM |
| C=C[C@@H]1C[C@]1(NC(=O)[C@@H]1C[C@@H](Oc2cc(-c3ccccc3)nc3cc(OC)ccc23)CN1C(=O)[C@@H](CC(=O)N1CCCCC1)C(C)(C)C)C(=O)NS(=O)(=O)C1(C)CC1 [Compound 106, (2S,4R)-1-((S)-2-tert-butyl-4-oxo-4-(piperidin-1-yl)butanoyl)-4-(7-methoxy-2-phenylquinolin-4-yloxy)-N-((1R,2S)-1-(1-methylcyclopropyl-sulfonylcarbamoyl)-2-vinylcyclo-propyl)pyrrolidine-2-carboxamide] | < 1000 nM |
| C=C[C@@H]1C[C@]1(NC(=O)[C@@H]1C[C@@H](Oc2cc(-c3ccccc3)nc3cc(OC)ccc23)CN1C(=O)[C@@H](CC(=O)N1CCCCC1)C(C)(C)C)C(=O)N(C1CC1)S(N)(=O)=O [Compound 107, (2S,4R)-1-((S)-2-tert-butyl-4-oxo-4-(piperidin-1-yl)butanoyl)-N-((1R,2S)-1-(N-cyclopropyl-sulfamoyl-carbamoyl)-2-vinylcyclopropyl)-4-(7-methoxy-2-phenylquinolin-4-yloxy)pyrrolidine-2-carboxamide] | < 1000 nM |
| C=C[C@@H]1C[C@]1(NC(=O)[C@@H]1C[C@@H](Oc2cc(-c3ccccc3)nc3cc(OC)ccc23)CN1C(=O)[C@@H](CC(=O)N1CCCC(F)(F)C1)C(C)(C)C)C(=O)NS(=O)(=O)C1CC1 [Compound 108, (2S,4R)-1-((S)-2-tert-butyl-4-(3,3-difluoropiperidin-1-yl)-4-oxobutanoyl)-N-((1R,2S)-1-(cyclo-propylsulfonyl-carbamoyl)-2-vinylcyclopropyl)-4-(7-methoxy-2-phenylquinolin-4-yloxy)pyrrolidine-2-carboxamide] | < 1000 nM |
| CC[C@H](NC(=O)[C@@H]1C[C@@H](Oc2cc(-c3ccccc3)nc3cc(OC)ccc23)CN1C(=O)[C@@H](CC(=O)N1CCCCC1)C(C)(C)C)C(=O)NS(=O)(=O)C1CC1 [Compound 109, (2S,4R)-1-((S)-2-tert-butyl-4-oxo-4-(piperidin-1-yl)butanoyl)-N-((S)-1-(cyclopropane-sulfonamido)-1-oxobutan-2-yl)-4-(7-methoxy-2-phenylquinolin-4-yloxy)pyrrolidine-2-carboxamide] | 1000 to 10000 nM |
| COc1ccc2c(O[C@@H]3C[C@@H](C(=O)N[C@H](C(=O)NS(=O)(=O)C4CC4)C(C)C)N(C(=O)[C@@H](CC(=O)N4CCCCC4)C(C)(C)C)C3)cc(-c3ccccc3)nc2c1 [Compound 110, (2S,4R)-1-((S)-2-tert-butyl-4-oxo-4-(piperidin-1-yl)butanoyl)-N-((S)-1-(cyclopropane-sulfonamido)-3-methyl-1-oxobutan-2-yl)-4-(7-methoxy-2-phenylquinolin-4-yloxy)pyrrolidine-2-carboxamide] | 1000 to 10000 nM |
| COc1ccc2c(O[C@@H]3C[C@@H](C(=O)NC(C)(C)C(=O)NS(=O)(=O)C4CC4)N(C(=O)[C@@H](CC(=O)N4CCCCC4)C(C)(C)C)C3)cc(-c3ccccc3)nc2c1 [Compound 111, (2S,4R)-1-((S)-2-tert-butyl-4-oxo-4-(piperidin-1-yl)butanoyl)-N-(1-(cyclopropane-sulfonamido)-2-methyl-1-oxopropan-2-yl)-4-(7-methoxy-2-phenylquinolin-4-yloxy)pyrrolidine-2-carboxamide] | 1000 to 10000 nM |
| COc1ccc2c(O[C@@H]3C[C@@H](C(=O)N[C@H](C(=O)NS(=O)(=O)C4CC4)c4ccccc4)N(C(=O)[C@@H](CC(=O)N4CCCCC4)C(C)(C)C)C3)cc(-c3ccccc3)nc2c1 [Compound 112, (2S,4R)-1-((S)-2-tert-butyl-4-oxo-4-(piperidin-1-yl)butanoyl)-N-((S)-2-(cyclopropane-sulfonamido)-2-oxo-1-phenylethyl)-4-(7-methoxy-2-phenylquinolin-4-yloxy)pyrrolidine-2-carboxamide] | 1000 to 10000 nM |
| CCC[C@H](NC(=O)[C@@H]1C[C@@H](Oc2cc(-c3ccccc3)nc3cc(OC)ccc23)CN1C(=O)[C@@H](CC(=O)N1CCCCC1)C(C)(C)C)C(=O)NS(=O)(=O)C1CC1 [Compound 113, (2S,4R)-1-((S)-2-tert-butyl-4-oxo-4-(piperidin-1-yl)butanoyl)-N-((S)-1-(cyclopropanesulfon-amido)-1-oxopentan-2-yl)-4-(7-methoxy-2-phenylquinolin-4-yloxy)pyrrolidine-2-carboxamide] | 1000 to 10000 nM |
| COc1ccc2c(O[C@@H]3C[C@@H](C(=O)N[C@@H](C)C(=O)NS(=O)(=O)C4CC4)N(C(=O)[C@@H](CC(=O)N4CCCCC4)C(C)(C)C)C3)cc(-c3ccccc3)nc2c1 [Compound 114, (2S,4R)-1-((S)-2-tert-butyl-4-oxo-4-(piperidin-1-yl)butanoyl)-N-((S)-1-(cyclopropanesulfon-amido)-1-oxopropan-2-yl)-4-(7-methoxy-2-phenylquinolin-4-yloxy)pyrrolidine-2-carboxamide] | 1000 to 10000 nM |
| COc1ccc2c(O[C@@H]3C[C@@H](C(=O)N[C@H](C(=O)NS(=O)(=O)C4CC4)C(C)(C)C)N(C(=O)[C@@H](CC(=O)N4CCCCC4)C(C)(C)C)C3)cc(-c3ccccc3)nc2c1 [Compound 115, (2S,4R)-1-((S)-2-tert-butyl-4-oxo-4-(piperidin-1-yl)butanoyl)-N-((S)-1-(cyclopropanesulfon-amido)-3,3-dimethyl-1-oxobutan-2-yl)-4-(7-methoxy-2-phenylquinolin-4-yloxy)pyrrolidine-2-carboxamide] | 1000 to 10000 nM |
| CC[C@@H](NC(=O)[C@@H]1C[C@@H](Oc2cc(-c3ccccc3)nc3cc(OC)ccc23)CN1C(=O)[C@@H](CC(=O)N1CCCCC1)C(C)(C)C)C(=O)NS(=O)(=O)C1CC1 [Compound 116, (2S,4R)-1-((S)-2-tert-butyl-4-oxo-4-(piperidin-1-yl)butanoyl)-N-((R)-1-(cyclopropanesulfon-amido)-1-oxobutan-2-yl)-4-(7-methoxy-2-phenylquinolin-4-yloxy)pyrrolidine-2-carboxamide] | 1000 to 10000 nM |
| CCC[C@@H](NC(=O)[C@@H]1C[C@@H](Oc2cc(-c3ccccc3)nc3cc(OC)ccc23)CN1C(=O)[C@@H](CC(=O)N1CCCCC1)C(C)(C)C)C(=O)NS(=O)(=O)C1CC1 [Compound 117, (2S,4R)-1-((S)-2-tert-butyl-4-oxo-4-(piperidin-1-yl)butanoyl)-N-((R)-1-(cyclopropanesulfon-amido)-1-oxopentan-2-yl)-4-(7-methoxy-2-phenylquinolin-4-yloxy)pyrrolidine-2-carboxamide] | 1000 to 10000 nM |
| COc1ccc2c(O[C@@H]3C[C@@H](C(=O)N[C@@H](C(=O)NS(=O)(=O)C4CC4)C(C)C)N(C(=O)[C@@H](CC(=O)N4CCCCC4)C(C)(C)C)C3)cc(-c3ccccc3)nc2c1 [Compound 118, (2S,4R)-1-((S)-2-tert-butyl-4-oxo-4-(piperidin-1-yl)butanoyl)-N-((R)-1-(cyclopropanesulfon-amido)-3-methyl-1-oxobutan-2-yl)-4-(7-methoxy-2-phenylquinolin-4-yloxy)pyrrolidine-2-carboxamide] | 1000 to 10000 nM |
| C=C[C@@H]1C[C@]1(NC(=O)[C@@H]1C[C@@H](Oc2cc(-c3ccccc3)nc3cc(OC)ccc23)CN1C(=O)[C@@H](CC(=O)N1CCC(F)(F)CC1)C(C)(C)C)C(=O)NS(=O)(=O)C1CC1 [Compound 119, (2S,4R)-1-((S)-2-tert-butyl-4-(4,4-difluoropiperidin-1-yl)-4-oxobutanoyl)-N-((1R,2S)-1-(cyclopropylsulfonyl-carbamoyl)-2-vinylcyclopropyl)-4-(7-methoxy-2-phenylquinolin-4-yloxy)pyrrolidine-2-carboxamide] | < 1000 nM |
| C=C[C@@H]1C[C@]1(NC(=O)[C@@H]1C[C@@H](Oc2cc(-c3ccccc3)nc3cc(OC)ccc23)CN1C(=O)[C@@H](CC(=O)N1CCCCC1)C(C)(C)C)C(=O)NS(=O)(=O)CC [Compound 120, (2S,4R)-1-((S)-2-tert-butyl-4-oxo-4-(piperidin-1-yl)butanoyl)-N-((1R,2S)-1-(ethyl-sulfonylcarbamoyl)-2-vinylcyclopropyl)-4-(7-methoxy-2-phenylquinolin-4-yloxy)pyrrolidine-2-carboxamide] | < 1000 nM |
| C=C[C@@H]1C[C@]1(NC(=O)[C@@H]1C[C@@H](Oc2cc(-c3ccccc3)nc3cc(OC)ccc23)CN1C(=O)[C@@H](CC(=O)N1CCCCC1)C1CC1)C(=O)NS(=O)(=O)C1CC1 [Compound 121, (2S,4R)-1-((S)-2-cyclopropyl-4-oxo-4-(piperidin-1-yl)butanoyl)-N-((1R,2S)-1-(cyclopropylsulfonyl-carbamoyl)-2-vinylcyclopropyl)-4-(7-methoxy-2-phenylquinolin-4-yloxy)pyrrolidine-2-carboxamide] | < 1000 nM |
| C=C[C@@H]1C[C@]1(NC(=O)[C@@H]1C[C@@H](Oc2nc(-c3ccccn3)nc3ccsc23)CN1C(=O)[C@@H](CC(=O)N1CCCCC1)C(C)(C)C)C(=O)NS(=O)(=O)C1CC1 [Compound 122, (2S,4R)-1-((S)-2-tert-butyl-4-oxo-4-(piperidin-1-yl)butanoyl)-N-((1R,2S)-1-(cyclopropylsulfonyl-carbamoyl)-2-vinylcyclopropyl)-4-(2-(pyridin-2-yl)thieno[3,2-d]pyrimidin-4-yloxy)pyrrolidine-2-carboxamide] | 1000 to 10000 nM |
| C=C[C@@H]1C[C@]1(NC(=O)[C@@H]1C[C@@H](OC(=O)N2c3ccccc3Sc3ccccc32)CN1C(=O)[C@@H](CC(=O)N1CCCCC1)C(C)(C)C)C(=O)NS(=O)(=O)C1CC1 [Compound 123, (3R,5S)-1-((S)-2-tert-butyl-4-oxo-4-(piperidin-1-yl)butanoyl)-5-((1R,2S)-1-(cyclopropylsulfonyl-carbamoyl)-2-vinyl-cyclopropylcarbamo-yl)pyrrolidin-3-yl 10H-phenothiazine-10-carboxylate] | 1000 to 10000 nM |

Source: US9133115B2 (ACHILLION PHARMACEUTICALS, INC., priority 2008, dated 2015)
